Where “and” joins values, the source holds several entries; their conditions need not be identical. Equal entries are not always repeated. Entries after “also recorded” stand apart in the source; their conditions may differ.
Assays:
healthy subjects = assay: Phase one single-dose study of psilocin mucic acid conjugate capsules: psychiatrist mood assessment and mini mental state examination (MMSE); conditions: single oral capsule, 4.05 mg conjugate equivalent to 2 mg psilocin
[1] = Stability studies on psilocin mucate capsule (appearance, HPLC assay and impurities, TM-022-0392); format: physicochemical; conditions: for Appearance, Packaging: Labeled, amber glass bottle with white closure containing 15 partially filled white opaque capsules / Appearance, Product: White to light brown powder partially filling white opaque capsules / Total Impurities TM-22-0392 / Impurities TM-22-0392, individual impurities / Assay TM-22-0392 (% Label Claim): capsule; for Assay TM-22-0392 (% Label Claim): specification 90.0-110.0%
Procedure: Additional stability studies were performed on psilocin mucate (also known as psilocin mucic acid salt or conjugate or psilocin galactaric acid salt or conjugate) capsule.
Appearance was evaluated by viewing of the sample on a watchglass over a black and white background.
Assay conditions for Test/Method TM-022-0392 assessing stability and impurities were as follows: • Mobile phase: MPA: 945 mL water, 5 mL H3PO4, PH to 5.7 with NaOH; MPB: Acetonitrile • Diluent: 80:20 Water:MeOH • Standard: 0.4 mg/mL Psilocin Mucic RS in Diluent • Sample: 0.4 mg/mL Psilocin Mucic API in Diluent HPLC Conditions are depicted in Table 3.
Calculations were against a bracketing external standard.
Identity of psilocin mucate was verified by ultraviolet (UV) assessment, wherein the UV spectrum of the main peak in the standard matched the UV spectrum of the main peak in the sample and by retention time wherein the retention time ratio was 0.98-1.02.

[2] = doses as low as 5 mg psilocybin (about 2 mg psilocin); cited from earlier work
[3] = psilocin from psilocybin dosing; cited from earlier work

Molecule | FEELING STATUS (mood assessed by psychiatrist) (healthy subjects; one entry per subject (01-10)) | MMSE score (healthy subjects; one value per subject (01-10), scores expected below 25 with a hallucinogenic substance) | Time demonstrated to be stable [1] | Appearance, Packaging: Labeled, amber glass bottle with white closure containing 15 partially filled white opaque capsules ([1]; 7 Months) | Appearance, Product: White to light brown powder partially filling white opaque capsules ([1]; 7 Months) | Total Impurities TM-22-0392 ([1]; 7 Months) | Impurities TM-22-0392, individual impurities ([1]; 7 Months, all impurities) | Assay TM-22-0392 (% Label Claim) ([1]; 7 Months) | Appearance, Packaging: Labeled, amber glass bottle with white closure containing 15 partially filled white opaque capsules ([1]; Initial) | Appearance, Product: White to light brown powder partially filling white opaque capsules ([1]; Initial) | Total Impurities TM-22-0392 ([1]; Initial) | Impurities TM-22-0392, individual impurities ([1]; Initial, impurity at RRT1.12) | Assay TM-22-0392 (% Label Claim) ([1]; Initial) | Adverse psychological effects reported [2] | Estimated dose-normalized bioavailability [3]
psilocin mucate | Feel calm, less thoughts, happier mood; also recorded: Euphoric, better mood, it helps with life stress; also recorded: Euphories, better mood, sleepy, feel time is slower; also recorded: Sleepy, better thoughts, less worried in general; also recorded: Did not feel change in mood but feeling cold extremities; also recorded: More relaxed, want to drink sweet tea, better mood; also recorded: Better mood, feels hyper sexual; also recorded: Felt high mood, now they feel in good way,, they would love to; also recorded: Less anxious, better mood, increase their appetite; also recorded: Feel little beet happier, better energy | 28 (3×) and 27 (2×) and 30 (3×) and 29 (2×) | at least 7 months | Conforms | Conforms | <0.05% | All <0.05% | 101.7% | Conforms | Conforms | 0.08% | RRT1.12/0.08% | 100.8% |  | 
CN(C)CCc1c[nH]c2cccc(OP(=O)(O)O)c12 [psilocybin, Psilocybin] |  |  |  |  |  |  |  |  |  |  |  |  |  | hallucinogenic effects coupled with increased anxiety | 52.7%

From US20260001841A1, “PREPARATION OF STABLE PSILOCIN SALTS, ESTERS AND CONJUGATES AND USES THEREOF” (LOBE SCIENCES LTD., priority 2022, published 2026)
